Consider six molecules from US20250020650A1, “METHOD OF PREDICTING A PATIENT'S BENEFIT FROM THERAPY WITH AN IMMUNE CHECKPOINT INHIBITOR” (EBERHARD KARLS UNIVERSITAET TUEBINGEN MEDIZINISCHE FAKULTAET, priority 2021, published 2025).

The subject of test [1] is protein translation in platelets. Kind of test: PD-L1 on cycloheximide pre-treated platelets after co-incubation with PD-L1-GFP transfected A549 cells. The test is classed as cell-based, human. Conditions: platelets pre-treated with 100 μM cycloheximide. Here is the method:
Tumor cells were coated with platelets as described previously with slight modifications. Briefly summarized, PRP was obtained from fresh whole blood by centrifugation for 20 minutes at 120 g. Platelets were washed twice with citrate wash buffer (128 mmol/L NaCl, 11 mmol/L glucose, 7.5 mmol/L Na2HPO4, 4.8 mmol/L sodium citrate, 4.3 mmol/L NaH2PO4, 2.4 citric acid, 0.35% bovine serum albumin). In some experiments platelets were pretreated with 5 μg/mL anti-CD42b (clone: AK2), 20 μg/mL anti-integrin β1 (clone: P4C10) and anti-Integrin α5 (clone: JBS5) or corresponding control IgG1 (20 μg/mL) for 30 minutes at 37° C. and 7% CO2. Tumor cells were incubated in platelets at a platelet-tumor cell ratio of […] for 30 minutes at 37° C. and 7% CO2. For immunofluorescence microscopy and FACS analysis cells were fixed in 2% PFA in PBS (pH 7.4) for 10 min at −20° C. prior staining.
For overexpression of PD-L1 (CD274) a True-ORF-GFP-tagged expression vector was used (OriGene Technologies, Rockville, MD, USA). Control cells were transfected using a FLAG tag. The FLAG cDNA was generated by PCR and cloned into the PD-L1-GFP vector using AsiSI and MluI restriction sites. Tumor cells were transfected with 2.5 μg DNA (PD-L1-GFP, FLAG-GFP) using Lipofectamine™ 3000, in accordance to the manufacturer's instructions.

The subject of another test is platelets. As to the kind of experiment: Controlled platelet stimulation, flow cytometry of pPD-L1. The format is cell-based, human. Conditions: 10 μM TRAP-6, 2.5 μM ADP or 5 μg/mL collagen for 2 minutes, NSCLC patient platelets. Here is the method: Platelets were obtained from healthy donors (not taking any medication for at least 10 days) and NSCLC patients after informed writing consent. Citrated blood was briefly centrifuged for 20 min at 120×g, the upper fraction was harvested as platelet-rich plasma (PRP). Platelets were washed twice with citrate wash buffer (128 mmol/L NaCl, 11 mmol/L glucose, 7.5 mmol/L Na2HPO4, 4.8 mmol/L sodium citrate, 4.3 mmol/L NaH2PO4, 2.4 citric acid, 0.35% bovine serum albumin, and 50 ng/ml prostaglandin E1 (PGE1)). […] For platelet activation 10 μM of the Thrombin Receptor Activator Peptide 6 (TRAP-6), a protease-activated receptor 1 (PAR1) agonist, 2.5 μM ADP or 5 μg/mL Collagen was added to the platelets for 2 minutes. Platelets were fixed by 2% paraformaldehyde for 10 min and washed twice with PBS containing 1% FCS.
Flow cytometry was performed using fluorescence-conjugates or specific mAb and their controls followed by species-specific conjugate (Table 2) using a FACS Cantoll flow cytometer […] or a LSRFortessa (Becton Dickinson) from the flow cytometer facility Tuebingen.
Positive cells in percentage (%) were calculated as follows: Surface expression in percent obtained with the specific antibody—surface expression in percent obtained with isotype control. Platelets were preselected by CD41a^+ and CD62P^− (resting) or CD62P^+ (activated). Data analysis was performed using FlowJo software (v.10). In order to verify the reproducibility of the inventors' flow cytometry system, the inventors performed a Bland-Altman analysis (FIG. 11 f). For immunophenotyping of PBMC subsets of lung cancer patients and healthy control donors were identified by counterstaining with CD3-PECy5 (BD biosciences, San Diego, CA), CD19-APC/Fire750, CD4-Pacific Blue, CD8a-BV605, CD56-PECy7, CD14-BV785, HLA-DR-BV650 (Biolegend, San Diego, CA) and CD16-FITC (Invitrogen). PD-1 and PDL-1 expression as well as activation levels were analyzed using a PD-1-APC or PDL-1-APC and a CD69-PE antibody (BD biosciences), respectively. Isotype controls were obtained from BD biosciences. […]
For orientation: Flow cytometry measures light scatter and fluorescence of single cells or particles in a stream.

Test [2] deals with T1, PD-L1 on platelets (Homo sapiens, UniProt Q9NZQ7).
T1 construct: PD-L1 positive platelets from NSCLC patients were pre-treated with the anti-PD-L1 mAB Atezolizumab; endogenous in cells; host or cells: platelets from the peripheral blood of NSCLC patients
Kind of test: IFNγ ELISPOT and cytokine staining of EBV/CMV peptide-stimulated T cells co-incubated with PD-L1 positive platelets. The format is cell-based. Particulars: platelets from NSCLC patients pre-treated 30 min, EBV/CMV-derived peptides, IFNγ and TNFα. Here is the method: Freshly thawed (ex vivo) PBMCs from healthy donors were analyzed by enzyme-linked immunospot (ELISPOT) assay in duplicates. Interferon γ (IFNγ) ELISPOT assays in the inventors' study were performed as described previously. In brief, 96-well nitrocellulose plates (Millipore) were coated with 1 mg/mL anti-IFNγ mAb (Mabtech) and incubated overnight at 4° C. In a next step, plates were blocked with human serum (10%) for 2 hours at 37° C. PBMCs (2.5×10^5 cells per well) were pulsed with an EBV/CMV epitope mix containing the frequently recognized peptides BRLF109-117 […] (SEQ ID NO: 11) (A*02) peptide and CMV pp65 (A*02) peptide NLVPMVATV (SEQ ID NO: 12) and incubated with or without platelets (ratio 1:50) for 24 hours. Phytohemagglutinin was used as positive control. HLA-A*02 (KLFEKVKEV (SEQ ID NO: 13))- and B*07 (KPSEKIQVL (SEQ ID NO: 14))-restricted control peptides derived from benign tissues (HV-exclusive HLA ligands) served as negative control. […] Readout was performed according to the manufacturer's instructions. Spots were counted using an ImmunoSpot S5 analyzer (CTL).
Peptide-specific T cells were further analyzed by intracellular cytokine and cell surface marker staining. […] Viable cells were determined using Aqua live/dead (1:400 dilution, Invitrogen). Samples were analyzed on a FACS Canto II cytometer (BD) and evaluated using FlowJo software v. […]

For test [3], the target named is T1, PD-L1 on platelets. Kind of test: NY-ESO-1 specific CD4+ TEM co-incubated with PD-L1 positive platelets (IFNγ and TNFα). The format is cell-based. Conditions: pPD-L1 positive platelets pre-treated with Atezolizumab 100 μg/mL for 30 min, NY-ESO-1 peptides. Here is the method: The generation of NY-ESO-1-specific T cells was performed using as described previously. In brief, PBMCs from a healthy donor (1×10^7/mL) were stimulated using pools of NY-ESO-1 overlapping peptides (1 μg/mL). The NY-ESO-1 overlapping peptide pool of 15 amino acid length (11 amino acid overlap) was purchased via Miltenyi Biotec. The cells were cultured in RPMI 1640 containing 10% human AB-serum and 1% L-glutamin in the presence of 10 U/mL recombinant IL-2 and 10 ng/ml II-7. Culture medium was replaced every third day. After a pre-sensitization period of 7-14 days, NY-ESO-1 specific, IFNγ^+ T cells were enriched after re-stimulation with NY-ESO-1 peptide pool for 6 h using CliniMACS® (Miltenyi Biotec) technique as reported previously. After enrichment, NY-ESO-1 specific T cells were expanded for 14 days in the presence of IL-7 (10 ng/ml), IL-15 (10 ng/mL) and IL-2 (50 U/mL). T cell specificity was analyzed via intracellular IFNγ staining as stated above. For further characterization of the T-cells the differentiation markers anti-CD45RO, mouse (1:200, clone: HI100), anti-CD62L, mouse (1:400, clone: DREG-56), anti-CD28, mouse (1:200, clone: CD28.2) and anti-CD27, mouse (1:200, clone: M-T271) were co-analyzed by flow cytometry. […] NY-ESO-1 specific T cell activity was determined by intracellular TNFα and IFNγ quantified via flow cytometry as described above.

Test [4] concerns platelet adhesion to fibronectin. As to the kind of experiment: Platelet adhesion to fibronectin-coated surface with platelet-blocking agents. The test is classed as cell-based, human. Conditions: washed platelets pretreated 30 minutes at 37° C.; 5 μg/mL anti-CD42b, 20 μg/mL anti-integrin β1 and anti-Integrin α5, 1 μg/mL Tirofiban. Here is the method:
To prepare fibronectin matrices, plates were coated with a human plasma fibronectin purified protein (R&D, Minneapolis, MN, USA), (concentration 50 μg/cm^2) for 120 min. For blocking of GPIb-IX-V complex, α5β1 or GPIIbIIIa, washed platelets (8×10^7/mL) were pretreated with 5 μg/mL anti-CD42b (clone: AK2), 20 μg/mL anti-integrin β1 (clone: P4C10) and anti-Integrin α5 (clone: JBS5), 1 μg/mL Tirofiban or corresponding control IgG1 (20 μg/mL) for 30 minutes at 37° C. and 7% CO2. After co-incubation with platelets (8×10^7/mL) for 30 min at 37° C. and 7% CO2, non-adherent platelets were removed via three washing steps using PBS. After removal of non-adherent platelets cells were fixed in 2% PFA in PBS (pH 7.4) for 10 min at −20° C. Platelet adhesion to fibronectin fibrils was evaluated by calculating surface coverage area and platelet count/FoV and from microscopic images using an ImageJ script (v. 1.52).

T1 sequence (Q9NZQ7 19-290): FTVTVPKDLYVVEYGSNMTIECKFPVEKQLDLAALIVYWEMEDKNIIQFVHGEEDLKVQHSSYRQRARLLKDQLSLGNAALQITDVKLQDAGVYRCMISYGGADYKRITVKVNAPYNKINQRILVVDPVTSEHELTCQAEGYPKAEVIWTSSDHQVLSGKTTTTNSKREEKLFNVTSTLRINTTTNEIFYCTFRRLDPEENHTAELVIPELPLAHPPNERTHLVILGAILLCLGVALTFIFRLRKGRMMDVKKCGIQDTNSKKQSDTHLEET

Consider `C[C@@H]1C[C@@H]([C@H](O)CC2CC(=O)NC(=O)C2)C(=O)[C@@H](C)C1` [cycloheximide], for which the “PD-L1-GFP expression in platelets” value in test [1] is on record as “did not result in a reduction”.
For `Nc1ncnc2c1ncn2[C@@H]1O[C@H](COP(=O)(O)OP(=O)(O)O)[C@@H](O)[C@H]1O` [ADP], the “pPD-L1 expression on the platelet surface upon platelet stimulation” value (from here on “pPD-L1 expression”) in the test with platelets is “maximized”.
For Atezolizumab, the “T cell inhibitory effect of PD-L1 expressing platelets” value with PD-L1 on platelets [2] was “abolished”. In the test with PD-L1 on platelets [3], the “T cell (CD4+ TEM) activity, IFNγ and TNFα release” value is recorded as “restored”.
Consider “Thrombin Receptor Activator Peptide 6 [TRAP-6]”, for which, in the test on platelets, the “pPD-L1 expression” value is recorded as “maximized”.
Turning to `CCCCS(=O)(=O)N[C@@H](Cc1ccc(OCCCCC2CCNCC2)cc1)C(=O)O` [Tirofiban], in test [4], the “platelet adhesion to fibronectin” value was “only marginally reduced”.
On to collagen, for which the “pPD-L1 expression” value in the test on platelets was “maximized”.
